One test deals with guinea pigs. Kind of test: In vivo bronchodilator activity by tracheal instillation against histamine challenge. More on the design: species or system guinea pig. The conditions noted are these: anesthetized male guinea pigs, inhibition of histamine (i.v.)-induced rise in tracheal pressure. The gist of the method: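 Urethane-anaesthetised male Hartley guinea pigs (400-600 g) received compound in water by intratracheal instillation, then were paralysed, ventilated and challenged with histamine […] i.v. Tracheal pressure change gave % inhibition (≥3 animals/group); ED50 from log dose-response; duration as time until inhibition fell to 40%.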

Test [1] relates to guinea pig tracheal smooth muscle. Kind of test: Tracheal relaxant activity of VIP analogs on isolated guinea pig tracheal rings. The conditions noted are these: cumulative concentration response, relaxation as % of maximum response to VIP (10^-6 M=100%), three tissues pooled, linear regression. It counts as cell-based. The gist of the method:
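Male guinea pig tracheal rings under 1.5 g resting tension in Krebs at 37° C, 95% O2/5% CO2, isometric tension. Cumulative concentration-response curves; relaxation as % of response to 10^-6 M VIP added at end; three tissues pooled, EC50 by linear regression.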

Data on 6 molecules can be found in patent US5677419A, “Cyclic vasoactive peptide analogs” (Hoffmann-La Roche Inc., priority 1994, dated 1997).

Where a SMILES comes first, the peptide text is derived from it. Bridges are numbered along the chain shown (N, C = ends). [ ]: non-standard residue; d: D form. Phe(4-NH2) = Nc1ccc(C[C@H](N)C(=O)O)cc1; Phe(4-F) = N[C@@H](Cc1ccc(F)cc1)C(=O)O; 1Nal = N[C@@H](Cc1cccc2ccccc12)C(=O)O; NMeA = CN[C@@H](C)C(=O)O; Nle = CCCC[C@H](N)C(=O)O

`CCCC[C@H](NC(=O)[C@H](CCC(N)=O)NC(=O)[C@H](CCCCN)NC(=O)[C@H](CCCNC(=N)N)NC(=O)[C@H](CC(C)C)NC(=O)[C@H](CCCCN)NC(=O)[C@@H](NC(=O)[C@H](Cc1ccc(O)cc1)NC(=O)[C@H](CC(N)=O)NC(=O)[C@H](CCC(=O)O)NC(=O)[C@@H](NC(=O)[C@H](Cc1ccccc1)NC(=O)[C@@H](NC(=O)[C@H](C)NC(=O)[C@H](CC(=O)O)NC(=O)[C@H](CO)NC(=O)[C@H](C)N(C)C(C)=O)C(C)C)[C@@H](C)O)[C@@H](C)O)C(=O)N[C@@H](C)C(=O)N[C@@H](C)C(=O)N[C@@H](CCCCN)C(=O)N[C@H]1CCCCNC(=O)C[C@@H](C(=O)N[C@@H](CC(C)C)C(=O)N[C@@H](CCCCN)C(=O)N[C@@H](CCCCN)C(N)=O)NC(=O)[C@H](CC(N)=O)NC(=O)[C@H](CC(C)C)NC(=O)[C@H](Cc2ccc(O)cc2)NC1=O` [SEQ ID NO:44, Ac-[N-Me-Ala^1,Glu^8,Lys^12,Nle^17,Ala^19,Asp^25,Leu^26,Lys^27,28]-VIP cyclo (Lys^21 →Asp^25)] (Ac-[NMeA]SDAVFTENYTKLRKQ[Nle]AAKKYLNDLKK-NH2; lactam 21-25): the “Bronchodilator activity of VIP analogs in guinea pigs, ED50” value (“Bronchodilator activity of VIP analogs” below) in the test on guinea pigs is reported as 0.097 μg. In test [1], this molecule showed a concentration for a half-maximal effect (EC50) of 360 pM.
The matching figures for `CCCC[C@H](NC(=O)[C@H](CCC(N)=O)NC(=O)[C@H](CCCCN)NC(=O)[C@H](CCCNC(=N)N)NC(=O)[C@H](CC(C)C)NC(=O)[C@H](CCCCN)NC(=O)[C@@H](NC(=O)[C@H](Cc1ccc(O)cc1)NC(=O)[C@H](CC(N)=O)NC(=O)[C@H](CCC(=O)O)NC(=O)[C@@H](NC(=O)[C@H](Cc1ccc(F)cc1)NC(=O)[C@@H](NC(=O)[C@H](C)NC(=O)[C@H](CC(=O)O)NC(=O)[C@H](CO)NC(=O)[C@H](Cc1c[nH]cn1)NC(C)=O)C(C)C)[C@@H](C)O)[C@@H](C)O)C(=O)N[C@@H](C)C(=O)N[C@@H](C)C(=O)N[C@@H](CCCCN)C(=O)N[C@H]1CCCCNC(=O)C[C@@H](C(=O)N[C@@H](CC(C)C)C(=O)N[C@@H](CCCCN)C(=O)N[C@@H](CCCCN)C(N)=O)NC(=O)[C@H](CC(N)=O)NC(=O)[C@H](CC(C)C)NC(=O)[C@H](Cc2ccc(O)cc2)NC1=O` [SEQ ID NO:45, Ac-[p-F-Phe^6,Glu^8,Lys^12,Nle^17,Ala^19,Asp^25,Leu^26,Lys^27,28]-VIP cyclo (Lys^21 →Asp^25)] (Ac-HSDAV[Phe(4-F)]TENYTKLRKQ[Nle]AAKKYLNDLKK-NH2; lactam 21-25): 0.026 μg and 470 pM.
Take `CCCC[C@H](NC(=O)[C@H](CCC(N)=O)NC(=O)[C@H](CCCCN)NC(=O)[C@H](CCCNC(=N)N)NC(=O)[C@H](CC(C)C)NC(=O)[C@H](CCCCN)NC(=O)[C@@H](NC(=O)[C@H](Cc1ccc(O)cc1)NC(=O)[C@H](CC(N)=O)NC(=O)[C@H](CCC(=O)O)NC(=O)[C@@H](NC(=O)[C@H](Cc1cccc2ccccc12)NC(=O)[C@@H](NC(=O)[C@H](C)NC(=O)[C@H](CC(=O)O)NC(=O)[C@H](CO)NC(=O)[C@H](Cc1c[nH]cn1)NC(C)=O)C(C)C)[C@@H](C)O)[C@@H](C)O)C(=O)N[C@@H](C)C(=O)N[C@@H](C)C(=O)N[C@@H](CCCCN)C(=O)N[C@H]1CCCCNC(=O)C[C@@H](C(=O)N[C@@H](CC(C)C)C(=O)N[C@@H](CCCCN)C(=O)N[C@@H](CCCCN)C(N)=O)NC(=O)[C@H](CC(N)=O)NC(=O)[C@H](CC(C)C)NC(=O)[C@H](Cc2ccc(O)cc2)NC1=O` [SEQ ID NO:46, Ac-[1-Nal^6,Glu^8,Lys^12,Nle^17,Ala^19,Asp^25,Leu^26,Lys^27,28]-VIP cyclo (Lys^21 →Asp^25)] (Ac-HSDAV[1Nal]TENYTKLRKQ[Nle]AAKKYLNDLKK-NH2; lactam 21-25): in the test on guinea pigs, the “Bronchodilator activity of VIP analogs” value is 0.036 μg. The same molecule displayed an EC50 in test [1] of 260 pM.
`CCCC[C@H](NC(=O)[C@H](CCC(N)=O)NC(=O)[C@H](CCCCN)NC(=O)[C@H](CCCNC(=N)N)NC(=O)[C@H](CC(C)C)NC(=O)[C@H](CCCCN)NC(=O)[C@@H](NC(=O)[C@H](Cc1ccc(N)cc1)NC(=O)[C@H](CC(N)=O)NC(=O)[C@H](CCC(=O)O)NC(=O)[C@@H](NC(=O)[C@H](Cc1ccccc1)NC(=O)[C@@H](NC(=O)[C@H](C)NC(=O)[C@H](CC(=O)O)NC(=O)[C@H](CO)NC(=O)[C@H](Cc1c[nH]cn1)NC(C)=O)C(C)C)[C@@H](C)O)[C@@H](C)O)C(=O)N[C@@H](C)C(=O)N[C@@H](C)C(=O)N[C@@H](CCCCN)C(=O)N[C@H]1CCCCNC(=O)C[C@@H](C(=O)N[C@@H](CC(C)C)C(=O)N[C@@H](CCCCN)C(=O)N[C@@H](CCCCN)C(N)=O)NC(=O)[C@H](CC(N)=O)NC(=O)[C@H](CC(C)C)NC(=O)[C@H](Cc2ccc(O)cc2)NC1=O` [SEQ ID NO:47, Ac-[Glu^8,p-NH2 -Phe^10,Lys^12,Nle^17,Ala^19,Asp^25,Leu^26,Lys^27,28]-VIP cyclo (Lys^21 →Asp^25)] (Ac-HSDAVFTEN[Phe(4-NH2)]TKLRKQ[Nle]AAKKYLNDLKK-NH2; lactam 21-25): the “Bronchodilator activity of VIP analogs” value in the test with guinea pigs was 0.075 μg. In test [1], this molecule had an EC50 of 320 pM.
The matching figures for `CCCC[C@H](NC(=O)[C@H](CCC(N)=O)NC(=O)[C@H](CCCCN)NC(=O)[C@H](CCCNC(=N)N)NC(=O)[C@H](CC(C)C)NC(=O)[C@H](CCCCN)NC(=O)[C@@H](NC(=O)[C@H](Cc1ccc(OC)cc1)NC(=O)[C@H](CC(N)=O)NC(=O)[C@H](CCC(=O)O)NC(=O)[C@@H](NC(=O)[C@H](Cc1ccccc1)NC(=O)[C@@H](NC(=O)[C@H](C)NC(=O)[C@H](CC(=O)O)NC(=O)[C@H](CO)NC(=O)[C@H](Cc1c[nH]cn1)NC(C)=O)C(C)C)[C@@H](C)O)[C@@H](C)O)C(=O)N[C@@H](C)C(=O)N[C@@H](C)C(=O)N[C@@H](CCCCN)C(=O)N[C@H]1CCCCNC(=O)C[C@@H](C(=O)N[C@@H](CC(C)C)C(=O)N[C@@H](CCCCN)C(=O)N[C@@H](CCCCN)C(N)=O)NC(=O)[C@H](CC(N)=O)NC(=O)[C@H](CC(C)C)NC(=O)[C@H](Cc2ccc(O)cc2)NC1=O` [SEQ ID NO:48, Ac-[Glu^8,O-Me-Tyr^10,Lys^12,Nle^17,Ala^19,Asp^25,Leu^26, Lys^27,28]-VIP cyclo (Lys^21 →Asp^25)] (Ac-HSDAVFTENY(Me)TKLRKQ[Nle]AAKKYLNDLKK-NH2; lactam 21-25): 0.094 μg and 410 pM.
The matching figures for `CCCC[C@H](NC(=O)[C@H](CCC(N)=O)NC(=O)[C@H](CCCCN)NC(=O)[C@H](CCCNC(=N)N)NC(=O)[C@H](CC(C)C)NC(=O)[C@H](CCCCN)NC(=O)[C@@H](NC(=O)[C@H](Cc1ccc(O)cc1)NC(=O)[C@H](CC(N)=O)NC(=O)[C@H](CC(=O)O)NC(=O)[C@@H](NC(=O)[C@H](Cc1ccc(F)cc1)NC(=O)[C@@H](NC(=O)[C@H](C)NC(=O)[C@H](CC(=O)O)NC(=O)[C@H](CO)NC(=O)[C@H](Cc1c[nH]cn1)NC(C)=O)C(C)C)[C@@H](C)O)[C@@H](C)O)C(=O)N[C@@H](C)C(=O)N[C@@H](C)C(=O)N[C@@H](CCCCN)C(=O)N[C@H]1CCCCNC(=O)C[C@@H](C(=O)N[C@H](C(=O)N[C@@H](CC(C)C)C(=O)N[C@H](C(N)=O)[C@@H](C)O)C(C)C)NC(=O)[C@H](CC(N)=O)NC(=O)[C@H](CC(C)C)NC(=O)[C@H](Cc2ccc(O)cc2)NC1=O` [SEQ ID NO:49, Ac-[p-F-Phe^6,Lys^12,Nle^17,Ala^19,Asp^25,Val^26,Thr^28]-VIP cyclo (Lys^21 →Asp^25)] (Ac-HSDAV[Phe(4-F)]TDNYTKLRKQ[Nle]AAKKYLNDVLT-NH2; lactam 21-25): 0.26 μg and 390 pM.

As usually defined, the EC50 is the concentration giving half of the maximal effect. The low end stands for greater potency, the high end for weaker potency.
